Holding throughout (assay): NCI-60 cell line screen, 48 h
Assay [1] concerns SF-295 CNS.
For assay [2], the system named is SNB-75 CNS.
Assay [3] has as its system NCI-H460 lung.
For assay [4], the system named is U251 CNS.
The test system of assay [5] is HT29 colon.
For assay [6], the system named is HCT-116 colon.
For assay [7], the system named is OVCAR-3 ovarian.
Assay [8] relates to SNB-19 CNS.
Assay [9] deals with NCI-H522 lung.
Assay [10] deals with SK-MEL-28 melanoma.
The subject of assay [11] is BT-549 breast.
Assay [12] deals with A498 renal.
Assay [13] has as its system HOP-62 NSCLC.
Assay [14] has as its system MALME-3M melanoma.
The subject of assay [15] is NCI-H23 lung.
The subject of assay [16] is CAKI-1 renal.
Assay [17] has as its system T-47D breast.

From PubChem BioAssay (NCI) come the findings set out here.

Structures are written as SMILES.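 Five concentrations, 48 hours, 96-well plates. TGI: total growth inhibition.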

Take `COc1cc2c(cc1OCCCNC(=O)c1cc3ccccc3[nH]1)N=C[C@@H]1CCCN1C2=O`: the TGI in [1] was over 31.9 µM; in assay [2], 2.01 µM; in assay [3], over 100 µM; in assay [4], over 33.6 µM; in assay [5], over 34.3 µM; in assay [6], 14.3 µM. Moreover, the TGI in assay [7] is over 100 µM; in assay [8], over 38.3 µM; in assay [9] it was 0.0462 µM; in assay [10], 1.65 µM; in [11], 0.559 µM; in [12], 0.257 µM. Moreover, in assay [13], the TGI is 21.6 µM.
Regarding `C=CC(C)(C)n1cc(C2=C3OC(=O)C(c4cn(C(C)(C)C=C)c5ccccc45)=C3OC2=O)c2ccccc21`, the TGI in [1], in assay [2], in assay [3], in assay [4], in assay [14] and in assay [15] was over 100 µM each time. The TGI in assay [5], in assay [6], in assay [16], in [7], in [8] and in assay [9] was over 100 µM each time. Moreover, the TGI in assay [10], in [11], in assay [12] and in assay [13] was over 100 µM in each case.
With `C/C(Cl)=N/OC(=O)Nc1ccc(F)c([N+](=O)[O-])c1`, the TGI in [1] is over 100 µM; in [2] it was 25 µM; in [3], over 100 µM; in [4], 41.9 µM; in assay [14], 8.88 µM; in assay [15], 48.5 µM. For the same compound, the TGI is over 52.7 µM in assay [5]; over 30.8 µM in assay [6]; 3.69 µM in assay [16]; 35.8 µM in assay [7]; 37.3 µM in assay [8]; 4.27 µM in assay [9]. In addition, the TGI in [10] stood at 37.1 µM; in assay [11], 29.8 µM; in assay [12], 39 µM; in [13] it was 33.9 µM.
With `C1C2CC3CC1CC(c1nn4c(C56CC7CC(CC(C7)C5)C6)nnc4s1)(C2)C3`, the TGI in assay [1], in assay [2], in assay [3], in assay [4], in assay [14] and in assay [15] was over 100 µM in each case. Moreover, the TGI in [5], in assay [6], in assay [16], in assay [17], in assay [7] and in [8] was over 100 µM each time. Also, the TGI in assay [9], in assay [10], in assay [12] and in assay [13] was over 100 µM each time.
As for `COC(=O)C1=CC2C(=O)c3ccccc3C1(c1ccccc1)N2C1CCCCC1` (stereo not drawn), the TGI in assay [1] is 55.3 µM; in assay [2] it was over 100 µM; in assay [3] it was 40.6 µM; in [4], 43.7 µM; in assay [14] it was 73.1 µM; in [15], over 100 µM. The TGI in [5] is over 100 µM; in [6], over 100 µM; in [16], 46.1 µM; in [7] it was 95 µM; in assay [8], over 100 µM; in assay [9] it was 82.3 µM. Moreover, the TGI in assay [10] was 41.4 µM; in assay [11], 79.7 µM; in assay [12], over 100 µM; in assay [13], 36.8 µM.
For `NCc1ccc(-c2ccc(CN)s2)s1`, the TGI in assay [1], in [2], in assay [4], in assay [14], in assay [15] and in [5] was over 100 µM throughout. Further, the TGI in assay [6], in [16], in assay [17], in assay [7], in [8] and in assay [9] was over 100 µM throughout. The TGI in assay [10] is over 100 µM; in assay [12], 23.1 µM; in assay [13] it was over 100 µM.
On to `O=C1c2ccccc2C(=O)C2NC(CCCCCSSCCCCCC3=NC4C(=O)c5ccccc5C(=O)C4N3)=NC12` (stereo not drawn), for which the TGI in assay [1], in [3], in [4], in [15], in assay [5] and in [6] was over 100 µM in each case. In addition, the TGI in assay [16], in [17], in assay [7], in [9], in [10] and in assay [12] was over 100 µM each time. Further, the TGI in [13] was over 100 µM.
As for `CC(=O)OCC(OC(C)=O)C1C[C@H]2O[C@@H]3[C@H](C[C@H]2O1)O[C@@]1(C[C@@H]3C)C[C@H](C)[C@@H]2O[C@]3(C[C@@H]2O1)C[C@H]1O[C@H]2[C@H](C)[C@H]4OC(=O)C[C@H]5CC[C@@H]6OC7[C@H]8O[C@]9(CC[C@H]%10CC(=O)[C@H](CC[C@H]%11C[C@@H](C)C(=O)C(C[C@@H]4O[C@H]2C[C@H]1O3)O%11)O%10)CC8O[C@@H]7[C@@H](O9)[C@H]6O5` (stereo partly drawn), the TGI was over 1 µM in assay [2]; over 1 µM in assay [3]; over 1 µM in assay [4]; over 0.39 µM in assay [6]; over 1 µM in assay [16]; over 1 µM in [7]. Besides, the TGI was over 1 µM in assay [8]; 0.00322 µM in assay [9]; over 1 µM in [10]; 0.411 µM in [11]; over 1 µM in assay [12]; over 1 µM in assay [13].
With `CCCCCCCCCCCCCCCCP(=O)(O)OCC(N)C(=O)O` (stereo not drawn), the TGI was 44.8 µM in assay [1]; 65.1 µM in assay [2]; 64.9 µM in [3]; over 100 µM in [4]; over 100 µM in assay [14]; over 100 µM in assay [15]. Further, the TGI is over 100 µM in assay [5]; 48.9 µM in assay [6]; 56.2 µM in assay [16]; over 100 µM in assay [17]; 79.3 µM in assay [7]; 44.8 µM in assay [8]. For the same compound, the TGI in [9] was 42.8 µM; in assay [10] it was over 100 µM; in [12], 52.2 µM; in assay [13] it was 47.9 µM.
